# Experimental data reported in patent US5721208A, “Glycopeptides a process for their preparation and their use” (Hoechst Aktiengesellschaft, priority 1991, dated 1998).
# Tests used:
# Bact. vulgatus 1446 = test: Minimum bacteriostatic inhibitory concentration, Agar dilution method; type: cell-based
# Staph. aureus SG 511 = test: as above; type: cell-based
# Strept. faecium D = test: as above; type: cell-based
# Propioni acnes 6922 = test: as above; type: cell-based
# Strept. pyogenes 77 A = test: as above; type: cell-based
# Bact. fragilis 1313 = test: as above; type: cell-based
# Staph. aureus 503 = test: as above; type: cell-based
# [1] = test system: Clostridium tetani ATCC 1940650; conditions: Agar dilution method
# Bact. fragilis 960 = test: Minimum bacteriostatic inhibitory concentration, Agar dilution method; type: cell-based
# [2] = test system: Clostridium perfringens 194; conditions: Agar dilution method
# Staph. aureus 285 = test: Minimum bacteriostatic inhibitory concentration, Agar dilution method; type: cell-based
# Escherichia coli DC 2 = test: as above; type: cell-based
# Bact. fragilis 312 = test: as above; type: cell-based
# Propioni acnes 6916 = test: as above; type: cell-based
# Strept. pyogenes 308 A = test: as above; type: cell-based
# [3] = test system: Peptostrept. anaerob. 932; test: as above; type: cell-based
Compound,Minimum bacteriostatic inhibitory concentration (Bact. vulgatus 1446),Minimum bacteriostatic inhibitory concentration (Staph. aureus SG 511),Minimum bacteriostatic inhibitory concentration (Strept. faecium D),Minimum bacteriostatic inhibitory concentration (Propioni acnes 6922),Minimum bacteriostatic inhibitory concentration (Strept. pyogenes 77 A),Minimum bacteriostatic inhibitory concentration (Bact. fragilis 1313),Minimum bacteriostatic inhibitory concentration (Staph. aureus 503),Minimum bacteriostatic inhibitory concentration [1],Minimum bacteriostatic inhibitory concentration (Bact. fragilis 960),Minimum bacteriostatic inhibitory concentration [2],Minimum bacteriostatic inhibitory concentration (Staph. aureus 285),Minimum bacteriostatic inhibitory concentration (Escherichia coli DC 2),Minimum bacteriostatic inhibitory concentration (Bact. fragilis 312),Minimum bacteriostatic inhibitory concentration (Propioni acnes 6916),Minimum bacteriostatic inhibitory concentration (Strept. pyogenes 308 A),Minimum bacteriostatic inhibitory concentration [3]
"CC(C)C[C@H](C(=O)N[C@H]1C(=O)NC(CC(N)=O)C(=O)N[C@H]2C(=O)N[C@H]3C(=O)N[C@H](C(=O)N[C@@H](C(=O)O)c4cc(O)cc(O)c4-c4cc3ccc4O)[C@H](O[C@H]3C[C@](C)(N)C(=O)[C@H](C)O3)c3ccc(c(Cl)c3)Oc3cc2cc(c3O[C@@H]2O[C@H](CO)[C@@H](O)[C@H](O)[C@H]2O)Oc2ccc(cc2Cl)[C@H]1O)N(C)C (some centres unmarked) [Methylbalhimycin, methylbalhimycin]",> 100 micrograms per milliliter,0.4 micrograms per milliliter,0.8 micrograms per milliliter,0.4 micrograms per milliliter,0.4 micrograms per milliliter,50 micrograms per milliliter,0.4 micrograms per milliliter,3.1 micrograms per milliliter,100 micrograms per milliliter,1.5 micrograms per milliliter,0.4 micrograms per milliliter,25 micrograms per milliliter,100 micrograms per milliliter,0.4 micrograms per milliliter,0.4 micrograms per milliliter,0.8 micrograms per milliliter
"CNC(CC(C)C)C(=O)NC1C(=O)NC(CC(N)=O)C(=O)NC2C(=O)NC3C(=O)NC(C(=O)NC(C(=O)O)c4cc(O)cc(O)c4-c4cc3ccc4O)C(OC3CC4(C)NC(=O)NC4(O)C(C)O3)c3ccc(c(Cl)c3)Oc3cc2cc(c3OC2OC(CO)C(O)C(O)C2O)Oc2ccc(cc2Cl)C1O (centres unmarked) [Ureidobalhimycin, ureidobalhimycin]",50 micrograms per milliliter,0.8 micrograms per milliliter,1.5 micrograms per milliliter,1.5 micrograms per milliliter,0.8 micrograms per milliliter,25 micrograms per milliliter,1.5 micrograms per milliliter,12.5 micrograms per milliliter,25 micrograms per milliliter,0.4 micrograms per milliliter,1.5 micrograms per milliliter,> 100 micrograms per milliliter,25 micrograms per milliliter,0.8 micrograms per milliliter,0.8 micrograms per milliliter,6.2 micrograms per milliliter
"CNC(CC(C)C)C(=O)NC1C(=O)NC(CC(N)=O)C(=O)NC2C(=O)NC3C(=O)NC(C(=O)NC(C(=O)O)c4cc(O)cc(O)c4-c4cc3ccc4O)C(OC3CC(C)(N)C(=O)C(C)O3)c3ccc(c(Cl)c3)Oc3cc2cc(c3O)Oc2ccc(cc2Cl)C1O (centres unmarked) [Desglucobalhimycin, desglucobalhimycin]",> 100 micrograms per milliliter,0.2 micrograms per milliliter,0.2 micrograms per milliliter,0.2 micrograms per milliliter,0.1 micrograms per milliliter,25 micrograms per milliliter,0.1 micrograms per milliliter,0.4 micrograms per milliliter,25 micrograms per milliliter,0.1 micrograms per milliliter,0.2 micrograms per milliliter,> 100 micrograms per milliliter,25 micrograms per milliliter,0.2 micrograms per milliliter,0.1 micrograms per milliliter,0.4 micrograms per milliliter
"CC1OC(OC2c3ccc(c(Cl)c3)Oc3cc4cc(c3OC3OC(CO)C(O)C(O)C3O)Oc3ccc(cc3Cl)C(O)C(N)C(=O)NC(CC(N)=O)C(=O)NC4C(=O)NC3C(=O)NC2C(=O)NC(C(=O)O)c2cc(O)cc(O)c2-c2cc3ccc2O)CC(C)(N)C1=O (centres unmarked) [Desmethylleucylbalhimycin, desmethylleucylbalhimycin]",100 micrograms per milliliter,3 micrograms per milliliter,6 micrograms per milliliter,6 micrograms per milliliter,3 micrograms per milliliter,100 micrograms per milliliter,6 micrograms per milliliter,50 micrograms per milliliter,50 micrograms per milliliter,6 micrograms per milliliter,6 micrograms per milliliter,> 100 micrograms per milliliter,50 micrograms per milliliter,6 micrograms per milliliter,12.5 micrograms per milliliter,50 micrograms per milliliter
"CC(C)CC(N)C(=O)NC1C(=O)NC(CC(N)=O)C(=O)NC2C(=O)NC3C(=O)NC(C(=O)NC(C(=O)O)c4cc(O)cc(O)c4-c4cc3ccc4O)C(OC3CC(C)(N)C(=O)C(C)O3)c3ccc(c(Cl)c3)Oc3cc2cc(c3OC2OC(CO)C(O)C(O)C2O)Oc2ccc(cc2Cl)C1O (centres unmarked) [Desmethylbalhimycin, desmethylbalhimycin]",50 micrograms per milliliter,0.1 micrograms per milliliter,0.2 micrograms per milliliter,0.4 micrograms per milliliter,0.05 micrograms per milliliter,50 micrograms per milliliter,0.05 micrograms per milliliter,50 micrograms per milliliter,25 micrograms per milliliter,0.2 micrograms per milliliter,0.1 micrograms per milliliter,10 micrograms per milliliter,100 micrograms per milliliter,0.8 micrograms per milliliter,0.05 micrograms per milliliter,25 micrograms per milliliter
